These results are taken from PubChem BioAssay (NCI).

Some test systems named below: HL-60(TB) leukemia; OVCAR-8 ovarian; 786-0 renal; M14 melanoma; DU-145 prostate; TK-10 renal; HOP-62 NSCLC; KM12 colon; MALME-3M melanoma; MCF7 breast; SK-MEL-5 melanoma; HCC-2998 colon.
Holding throughout (test): DTP human tumour cell line panel, 48 h

The structures appear in SMILES notation. Values joined by “and” are separate entries in the source; they are usually repeats but may differ in a detail not shown here. Equal values may be shown once.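 Growth conditions: 96-well plates. Treatment: test compound, 48 hours, 5 concentrations. Analysis: linear interpolation between bracketing concentrations; unreached endpoints set to highest concentration. At the GI50, growth is halved. TGI marks complete inhibition of growth.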

One may read the TGI as the concentration giving total growth inhibition. Low values mean more potent growth arrest, high ones less potent growth arrest. Take `C[C@]12CC/C(=N\O)C=C1CC[C@@H]1[C@@H]2CC[C@]2(C)C(=N/O)/C(=C/c3cccnc3)C[C@@H]12`: the TGI in the test with HL-60(TB) leukemia is 4.12 µM; with OVCAR-8 ovarian, 80.3 µM; in the test on 786-0 renal, above 100 µM; with M14 melanoma it was 75 µM; with DU-145 prostate, above 100 µM; in the test on TK-10 renal, 59.3 µM. For the same compound, the TGI in the test with HOP-62 NSCLC worked out at 85.5 µM; in the test with KM12 colon, 32.1 µM; in the test on MALME-3M melanoma, 72.3 µM; with MCF7 breast, 29.2 µM.

Take `COC(c1ccc(C(C)(C)C)cc1)(c1ccc(C(C)(C)C)cc1)c1cc(C(O)(c2cc(C(OC)(c3ccc(C(C)(C)C)cc3)c3ccc(C(C)(C)C)cc3)c(C)cc2C)c2cc(C(OC)(c3ccc(C(C)(C)C)cc3)c3ccc(C(C)(C)C)cc3)c(C)cc2C)c(C)cc1C`: the concentration for total growth inhibition (TGI) in the test on HL-60(TB) leukemia, in the test on OVCAR-8 ovarian, with M14 melanoma, with DU-145 prostate, with TK-10 renal and in the test on SK-MEL-5 melanoma was above 100 µM in each case. Also, the TGI in the test with HOP-62 NSCLC, in the test on HCC-2998 colon, in the test with MALME-3M melanoma and in the test on MCF7 breast was above 100 µM each time.

For `CO/N=C1/c2sccc2[C@H](NC(=O)CNC(=O)OC(C)(C)C)[C@@H]1O`, the TGI in the test on HL-60(TB) leukemia, with OVCAR-8 ovarian, with M14 melanoma, in the test with DU-145 prostate, in the test on TK-10 renal and in the test on SK-MEL-5 melanoma was above 100 µM in each case. Moreover, the concentration for total growth inhibition (TGI) in the test with HOP-62 NSCLC, in the test on HCC-2998 colon, in the test on MALME-3M melanoma and in the test on MCF7 breast was above 100 µM throughout.

The term GI50 denotes the concentration at which growth is held to half of that of the control. Consider `COc1cc([C@@H]2c3cc4c(cc3C[C@H]3COC(=O)[C@@H]32)OCO4)cc(OC)c1OC`, for which the concentration for 50% growth inhibition (GI50) with HL-60(TB) leukemia was 0.00202 µM; with OVCAR-8 ovarian, 0.00407 µM; in the test with SK-MEL-5 melanoma it was 0.00397 µM; with HOP-62 NSCLC it was 0.00577 µM; with KM12 colon, 0.00389 µM and 0.005 µM; with HCC-2998 colon it was 0.00446 µM. The GI50 is 0.00681 µM in the test with MALME-3M melanoma and 0.00506 µM with MCF7 breast. For the same compound, the TGI in the test on HL-60(TB) leukemia was 0.00526 µM and 0.0126 µM; in the test with OVCAR-8 ovarian, 0.324 µM; with DU-145 prostate, 0.00914 µM; with SK-MEL-5 melanoma it was above 7.93 µM; with HOP-62 NSCLC, 40.5 µM; in the test on KM12 colon, above 50 µM. For the same compound, the TGI with HCC-2998 colon was 1.01 µM; with MALME-3M melanoma, above 50 µM; in the test on MCF7 breast, 2.03 µM.

For the compound `O=C(/C=C/c1cccs1)c1ccc(Cl)cc1`, the TGI in the test on HL-60(TB) leukemia was 70.5 µM; with OVCAR-8 ovarian it was above 100 µM; in the test on 786-0 renal, above 100 µM; in the test with DU-145 prostate it was above 100 µM; with TK-10 renal, above 100 µM; in the test with SK-MEL-5 melanoma it was above 100 µM. Besides, the total growth inhibition concentration (TGI) with HOP-62 NSCLC, with KM12 colon, in the test on HCC-2998 colon, with MALME-3M melanoma and in the test with MCF7 breast was above 100 µM in each case.

In the case of `CCOc1ccc(N=C/C=C(\Cl)c2ccc3ccccc3c2)cc1`, the total growth inhibition concentration (TGI) turned out to be 33.8 µM in the test with HL-60(TB) leukemia; 32.8 µM with OVCAR-8 ovarian; 26.7 µM in the test with 786-0 renal; 37.7 µM in the test with M14 melanoma; 30.7 µM in the test with DU-145 prostate; 35.7 µM in the test on TK-10 renal. In addition, the TGI in the test on SK-MEL-5 melanoma turned out to be 31 µM; in the test with HOP-62 NSCLC, 29.8 µM; in the test with KM12 colon, 33.9 µM; in the test on MALME-3M melanoma, 30.6 µM; in the test on MCF7 breast it was 55.1 µM.

Consider `O=C1/C(=C/c2ccc(Br)s2)NC(=S)N1CN1CCOCC1`, for which the TGI with HL-60(TB) leukemia is 62.6 µM; with OVCAR-8 ovarian, above 100 µM; with 786-0 renal it was above 100 µM; in the test on DU-145 prostate, above 100 µM; in the test with TK-10 renal it was above 100 µM; in the test with SK-MEL-5 melanoma, above 100 µM. The TGI with HOP-62 NSCLC was above 100 µM; in the test with KM12 colon it was above 100 µM; with HCC-2998 colon, above 100 µM; in the test on MALME-3M melanoma, above 100 µM; with MCF7 breast, 52.8 µM.

With `CCOC(=O)c1cnc2[nH]ccn2c1=O`, the TGI in the test on HL-60(TB) leukemia, in the test with OVCAR-8 ovarian, in the test with 786-0 renal, with M14 melanoma, with DU-145 prostate and in the test with TK-10 renal was above 10 µM each time. The TGI in the test on SK-MEL-5 melanoma, in the test on HOP-62 NSCLC, in the test with KM12 colon, with MALME-3M melanoma and in the test on MCF7 breast was above 10 µM throughout.

Turning to `NCCCC(N)C(=O)O` (stereo unspecified), the TGI with HL-60(TB) leukemia, in the test with OVCAR-8 ovarian, in the test on 786-0 renal, in the test with M14 melanoma, with DU-145 prostate and in the test on TK-10 renal was above 100 µM in each case. Moreover, the concentration for total growth inhibition (TGI) with SK-MEL-5 melanoma, in the test with HOP-62 NSCLC, in the test with KM12 colon, with MALME-3M melanoma and in the test with MCF7 breast was above 100 µM each time.

Consider `COc1cc2c(cc1OC)C(=O)/C(=C/c1cc(C)c(O)c(C)c1)C2`, for which the concentration for total growth inhibition (TGI) in the test on HL-60(TB) leukemia, in the test with M14 melanoma, in the test with DU-145 prostate, in the test with TK-10 renal, with SK-MEL-5 melanoma and with HOP-62 NSCLC was above 100 µM each time. Besides, the TGI with HCC-2998 colon was above 100 µM; with MALME-3M melanoma, 40.1 µM; in the test with MCF7 breast, above 100 µM.
